Experimental data from patent US20050070510A1, “Substituted tetracycline compounds as synergistic antifungal agents” (Paratek Pharmaceuticals, Inc., priority 2001, published 2005).

Tested on: COS-1 cells
Experiment: In vitro mammalian cytotoxicity assay (Resazurin)

Structure (SMILES) | In Vitro Cytotoxicity
CCCCCc1cc(N(C)C)c2c(c1O)C(=O)C1=C(O)[C@]3(C#N)C(=O)C(C(N)=O)=C(O)[C@@H](N(C)C)[C@]3(N)C[C@]1(N)C2 [KW] | ** (toxicities less than 25 μg/mL are represented by **)
CN(C)[C@@H]1C(O)=C(C(N)=O)C(=O)[C@@]2(C#N)C(O)=C3C(=O)c4c(O)c(-c5cccc6c5OCO6)cc(-c5ccc6c(c5)OCO6)c4[C@H](N)[C@@]3(N)[C@H](O)[C@@]12N [PU] | ** (toxicities less than 25 μg/mL are represented by **)
CC(=O)c1cc(C(C)=O)c2c(c1O)C(=O)C1=C(O)[C@]3(C#N)C(=O)C(C(N)=O)=C(O)[C@@H](N(C)C)[C@]3(N)C[C@]1(N)C2 [LL] | * (toxicities greater than >25 μg/ml are represented by *)
COC(CN(Cc1ccc(O)c2c1C[C@@]1(N)C[C@@]3(N)[C@H](N(C)C)C(O)=C(C(N)=O)C(=O)[C@@]3(C#N)C(O)=C1C2=O)CC(OC)OC)OC [SG] | * (toxicities greater than >25 μg/ml are represented by *)
CN(C)[C@@H]1C(O)=C(C(N)=O)C(=O)[C@@]2(C#N)C(O)=C3C(=O)c4c(O)ccc(-c5ccc(C(C)(C)C)cc5)c4C[C@@]3(N)C[C@@]12N [QH] | ** (toxicities less than 25 μg/mL are represented by **)
CN(C)c1cc(-c2ccc(Cl)c(Cl)c2)c(O)c2c1C[C@@]1(N)C[C@@]3(N)[C@H](N(C)C)C(O)=C(C(N)=O)C(=O)[C@@]3(C#N)C(O)=C1C2=O [EV] | ** (toxicities less than 25 μg/mL are represented by **)
CN(C)[C@@H]1C(O)=C(C(N)=O)C(=O)[C@@]2(C#N)C(O)=C3C(=O)c4c(O)ccc(-c5ccoc5)c4C[C@@]3(N)C[C@@]12N [EP] | ** (toxicities less than 25 μg/mL are represented by **)
COc1ccc(CNC(C)C)cc1-c1ccc(O)c2c1C[C@@]1(N)C[C@@]3(N)[C@H](N(C)C)C(O)=C(C(N)=O)C(=O)[C@@]3(C#N)C(O)=C1C2=O [LS] | * (toxicities greater than >25 μg/ml are represented by *)
CN(C)c1cc(/C=C/c2ccccc2)c(O)c2c1[C@H](N)[C@]1(N)C(=C(O)[C@]3(C#N)C(=O)C(C(N)=O)=C(O)[C@@H](N(C)C)[C@]3(N)[C@H]1O)C2=O [BH] | ** (toxicities less than 25 μg/mL are represented by **)
Cc1ccc(-c2ccc(O)c3c2C[C@@]2(N)C[C@@]4(N)[C@H](N(C)C)C(O)=C(C(N)=O)C(=O)[C@@]4(C#N)C(O)=C2C3=O)cc1N [PK] | ** (toxicities less than 25 μg/mL are represented by **)
CN(C)[C@@H]1C(O)=C(C(N)=O)C(=O)[C@@]2(C#N)C(O)=C3C(=O)c4c(O)cccc4[C@H](N)[C@@]3(N)[C@H](OC(=O)Nc3ccc(O)cc3[N+](=O)O)[C@@]12N [BN] | * (toxicities greater than >25 μg/ml are represented by *)
CN(C)c1cc(NCc2ccc3c(c2)OCO3)c(O)c2c1C[C@@]1(N)C[C@@]3(N)[C@H](N(C)C)C(O)=C(C(N)=O)C(=O)[C@@]3(C#N)C(O)=C1C2=O [MK] | ** (toxicities less than 25 μg/mL are represented by **)
COc1ccc(C#Cc2cc(N(C)C)c3c(c2O)C(=O)C2=C(O)[C@]4(C#N)C(=O)C(C(N)=O)=C(O)[C@@H](N(C)C)[C@]4(N)C[C@]2(N)C3)cc1 [FE] | ** (toxicities less than 25 μg/mL are represented by **)
COCCOC(=O)NCc1cc(N(C)C)c2c(c1O)C(=O)C1=C(O)[C@]3(C#N)C(=O)C(C(N)=O)=C(O)[C@@H](N(C)C)[C@]3(N)C[C@]1(N)C2 [MT] | * (toxicities greater than >25 μg/ml are represented by *)
CN(C)[C@@H]1C(O)=C(C(N)=O)C(=O)[C@@]2(C#N)C(O)=C3C(=O)c4c(O)ccc(CNC(=O)OCC(C)(C)C)c4C[C@@]3(N)C[C@@]12N [NP] | ** (toxicities less than 25 μg/mL are represented by **)
CCNC(=O)NCc1cc(N(C)C)c2c(c1O)C(=O)C1=C(O)[C@]3(C#N)C(=O)C(C(N)=O)=C(O)[C@@H](N(C)C)[C@]3(N)C[C@]1(N)C2 [MH] | * (toxicities greater than >25 μg/ml are represented by *)
CCc1cc(C(C)(C)C)c(O)c2c1C[C@@]1(N)C[C@@]3(N)[C@H](N(C)C)C(O)=C(C(=O)NC(C)(C)C)C(=O)[C@@]3(C#N)C(O)=C1C2=O [LE] | ** (toxicities less than 25 μg/mL are represented by **)
CC(=O)Nc1cccc(-c2ccc(O)c3c2C[C@@]2(N)C[C@@]4(N)[C@H](N(C)C)C(O)=C(C(N)=O)C(=O)[C@@]4(C#N)C(O)=C2C3=O)c1 [GT] | * (toxicities greater than >25 μg/ml are represented by *)
CN(C)C1C(O)=C(C(N)=O)C(=O)[C@@]2(C#N)C(O)=C3C(=O)c4c(O)ccc(-c5ccc(NC(=O)c6ccno6)cc5)c4C[C@@]3(N)C[C@@]12N (stereo partly drawn) [RH] | * (toxicities greater than >25 μg/ml are represented by *)
CN(C)[C@@H]1C(O)=C(C(N)=O)C(=O)[C@@]2(C#N)C(O)=C3C(=O)c4c(O)ccc(I)c4[C@H](N)[C@@]3(N)[C@H](O)[C@@]12N [CL] | ** (toxicities less than 25 μg/mL are represented by **)
COc1ccc(CNCC(C)C)cc1-c1ccc(O)c2c1C[C@@]1(N)C[C@@]3(N)[C@H](N(C)C)C(O)=C(C(N)=O)C(=O)[C@@]3(C#N)C(O)=C1C2=O [LW] | * (toxicities greater than >25 μg/ml are represented by *)

Structure (SMILES) | In Vitro Cytotoxicity
CN(C)[C@@H]1C(O)=C(C(N)=O)C(=O)[C@@]2(C#N)C(O)=C3C(=O)c4c(O)cccc4C(N)[C@@]3(N)[C@H](OC(=O)CNC(=O)OC(C)(C)C)[C@@]12N (stereo partly drawn) [AU] | ** (toxicities less than 25 μg/mL are represented by **)
CCc1cc(C#CC2=CCCCC2)c(O)c2c1C[C@@]1(N)C[C@@]3(N)[C@H](N(C)C)C(O)=C(C(N)=O)C(=O)[C@@]3(C#N)C(O)=C1C2=O [KE] | ** (toxicities less than 25 μg/mL are represented by **)
CN(C)c1cc(CCC2(O)CCCC2)c(O)c2c1C[C@@]1(N)C[C@@]3(N)[C@H](N(C)C)C(O)=C(C(N)=O)C(=O)[C@@]3(C#N)C(O)=C1C2=O [PW] | ** (toxicities less than 25 μg/mL are represented by **)
CN(C)CC#Cc1cc(C(C)(C)C)c(O)c2c1C[C@@]1(N)C[C@@]3(N)[C@H](N(C)C)C(O)=C(C(N)=O)C(=O)[C@@]3(C#N)C(O)=C1C2=O [OH] | ** (toxicities less than 25 μg/mL are represented by **)
CC(=O)c1ccc(-c2cc(N(C)C)c3c(c2O)C(=O)C2=C(O)[C@]4(C#N)C(=O)C(C(N)=O)=C(O)[C@@H](N(C)C)[C@]4(N)C[C@]2(N)C3)cc1 [Compound HJ, 9-(4′-Acetylphenyl) Minocycline] | ** (toxicities less than 25 μg/mL are represented by **)
CN(C)c1cc(NC(=O)NC(=O)c2ccccc2)c(O)c2c1C[C@@]1(N)C[C@@]3(N)[C@H](N(C)C)C(O)=C(C(N)=O)C(=O)[C@@]3(C#N)C(O)=C1C2=O [IK] | * (toxicities greater than >25 μg/ml are represented by *)
CN(C)[C@@H]1C(O)=C(C(N)=O)C(=O)[C@@]2(C#N)C(O)=C3C(=O)c4c(O)c(CN)cc(-c5ccccc5)c4C[C@@]3(N)C[C@@]12N [RO] | * (toxicities greater than >25 μg/ml are represented by *)
CCCC(C)(C)NC(=O)C1=C(O)[C@@H](N(C)C)[C@]2(N)[C@@H](O)[C@@]3(N)C(=C(O)[C@]2(C#N)C1=O)C(=O)c1c(O)cccc1[C@@H]3N [BD] | ** (toxicities less than 25 μg/mL are represented by **)
CN(C)c1cc(CCc2ccc(F)cc2)c(O)c2c1C[C@@]1(N)C[C@@]3(N)[C@H](N(C)C)C(O)=C(C(N)=O)C(=O)[C@@]3(C#N)C(O)=C1C2=O [KF] | ** (toxicities less than 25 μg/mL are represented by **)
CN(C)[C@@H]1C(O)=C(C(N)=O)C(=O)[C@@]2(C#N)C(O)=C3C(=O)c4c(O)cccc4[C@H](CSCc4ccccc4)[C@@]3(N)[C@H](O)[C@@]12N [DH] | ** (toxicities less than 25 μg/mL are represented by **)
CCc1cncc(-c2ccc(O)c3c2C[C@@]2(N)C[C@@]4(N)[C@H](N(C)C)C(O)=C(C(N)=O)C(=O)[C@@]4(C#N)C(O)=C2C3=O)c1 [UY] | ** (toxicities less than 25 μg/mL are represented by **)
CN(C)[C@@H]1C(O)=C(C(N)=O)C(=O)[C@@]2(C#N)C(O)=C3C(=O)c4c(O)ccc(I)c4[C@H](N)[C@@]3(N)[C@H](OC(=O)C3CCCCC3)[C@@]12N [CV] | ** (toxicities less than 25 μg/mL are represented by **)
CN(C)c1cc(CNC(=O)Nc2ccc(OC(F)(F)F)cc2)c(O)c2c1C[C@@]1(N)C[C@@]3(N)[C@H](N(C)C)C(O)=C(C(N)=O)C(=O)[C@@]3(C#N)C(O)=C1C2=O [NE] | * (toxicities greater than >25 μg/ml are represented by *)
CCSC(=O)/C=C/c1ccc2c(c1O)C(=O)C1=C(O)[C@]3(C#N)C(=O)C(C(N)=O)=C(O)[C@@H](N(C)C)[C@]3(N)[C@@H](O)[C@]1(N)[C@H]2O [AT] | ** (toxicities less than 25 μg/mL are represented by **)
CN(C)[C@@H]1C(O)=C(C(N)=O)C(=O)[C@@]2(C#N)C(O)=C3C(=O)c4c(O)ccc(I)c4C[C@@]3(N)C[C@@]12N [CU] | ** (toxicities less than 25 μg/mL are represented by **)
CN(C)[C@@H]1C(O)=C(C(N)=O)C(=O)[C@@]2(C#N)C(O)=C3C(=O)c4c(O)ccc(C#Cc5ccc(NS(C)(=O)=O)cc5)c4C[C@@]3(N)C[C@@]12N [HO] | ** (toxicities less than 25 μg/mL are represented by **)
CN(C)[C@@H]1C(O)=C(C(N)=O)C(=O)[C@@]2(C#N)C(O)=C3C(=O)c4c(O)ccc(C#Cc5ccccc5)c4C[C@@]3(N)C[C@@]12N [FB] | ** (toxicities less than 25 μg/mL are represented by **)
CN(C)[C@@H]1C(O)=C(C(N)=O)C(=O)[C@@]2(C#N)C(O)=C3C(=O)c4c(O)ccc(-c5ccc(CNCc6cccc(F)c6)cc5)c4C[C@@]3(N)C[C@@]12N [OG] | ** (toxicities less than 25 μg/mL are represented by **)
CCCCc1cc(CN)c(O)c2c1C[C@@]1(N)C[C@@]3(N)[C@H](N(C)C)C(O)=C(C(N)=O)C(=O)[C@@]3(C#N)C(O)=C1C2=O [KV] | * (toxicities greater than >25 μg/ml are represented by *)
CCc1cc(F)c(O)c2c1C[C@@]1(N)C[C@@]3(N)[C@H](N(C)C)C(O)=C(C(N)=O)C(=O)[C@@]3(C#N)C(O)=C1C2=O [IR] | ** (toxicities less than 25 μg/mL are represented by **)
CCc1cc(N(C)C)c2c(c1O)C(=O)C1=C(O)[C@]3(C#N)C(=O)C(C(N)=O)=C(O)[C@@H](N(C)C)[C@]3(N)C[C@]1(N)C2 [QZ] | * (toxicities greater than >25 μg/ml are represented by *)
